Results reported in patent US8791132B2, “Compounds and methods for treatment of hypertension” (Medivation Technologies, Inc., priority 2011, dated 2014).
Several values for one entry are separate records, joined by “and”; a condition that tells them apart may be missing. Equal entries are not always repeated. Where two headings read alike, the source gives them in different places.

Target: T1, human recombinant adrenergic α2A receptor (Homo sapiens, UniProt P08913)
T1 construct: expressed in transfected cells; host or cells: insect Sf9 cells
T1 sequence (P08913 1-465): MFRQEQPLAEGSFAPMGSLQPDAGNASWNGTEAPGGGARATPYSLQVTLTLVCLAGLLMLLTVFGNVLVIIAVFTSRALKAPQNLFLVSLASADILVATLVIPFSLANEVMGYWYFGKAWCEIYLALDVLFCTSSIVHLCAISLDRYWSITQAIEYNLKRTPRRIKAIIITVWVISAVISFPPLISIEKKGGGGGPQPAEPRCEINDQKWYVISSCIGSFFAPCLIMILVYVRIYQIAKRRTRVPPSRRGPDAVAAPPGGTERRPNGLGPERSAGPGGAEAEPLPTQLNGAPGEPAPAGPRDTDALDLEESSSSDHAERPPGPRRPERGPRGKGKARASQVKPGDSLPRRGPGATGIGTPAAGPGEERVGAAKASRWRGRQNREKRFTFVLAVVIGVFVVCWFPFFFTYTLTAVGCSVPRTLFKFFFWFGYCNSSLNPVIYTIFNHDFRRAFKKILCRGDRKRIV
Assay: Radioligand binding, adrenergic α2A ([3H]MK-912)
Settings: for inhibition at 0.1 µM / Percentage inhibition of ligand binding, Adrenergic α2A / Percentage inhibition of ligand binding, Adrenergic α2A (0.1 μM) / inhibition at 0.03 µM: [3H]MK-912; for Percentage inhibition of ligand binding, Adrenergic α2A / Percentage inhibition of ligand binding, Adrenergic α2A (0.1 μM): 0.1 µM
In short: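 Displacement of 1 nM [3H]MK-912 from receptor produced in insect Sf9 cells was measured after 60 min at 25 °C. Readout: percent inhibition of specific binding.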

[1] = read-out: Percentage inhibition of ligand binding, Adrenergic α2A (0.1 μM), compound at 0.1 μM, repeat datapoints each shown
[2] = compound at 0.1 μM, repeat assays, each datapoint shown
[3] = compound at 0.1 μM, repeat assays, each datapoint shown, read-out: Percentage inhibition of ligand binding, Adrenergic α2A
[4] = compound at 0.1 μM, repeat datapoints each shown
[5] = read-out: Percentage inhibition of ligand binding, Adrenergic α2A (0.03 μM), compound at 0.03 μM, repeat datapoints each shown

Row | Compound | inhibition at 0.1 µM [1] [%] | Ki [nM] | Percentage inhibition of ligand binding, Adrenergic α2A (0.1 μM) [4] | also measured
1 | Cc1ccc(C(O)Cn2c3c(c4cc(C)ccc42)CN(C)CC3)cc1 (racemic) [compound 183, racemic-2-(1,2,3,4-tetrahydro-2,8-dimethylpyrido[4,3-b]indol-5-yl)-1-p-tolylethanol] | 93 |  |  | 
2 | Cc1cnc2c(c1)c1c(n2CCc2ccc(C)nc2)CCN2CCCC12 (single isomer, unassigned) [74a, 10-methyl-7-(2-(6-methylpyridin-3-yl)ethyl)-2,3,5,6,7,11c-hexahydro-1H-pyrido[3′,2′:4,5]pyrrolo[2,3-g]indolizine] |  | 234 |  | Percentage inhibition of ligand binding, Adrenergic α2A [2]: 27%; inhibition at 0.1 µM [3]: 22%
3 | Cc1cnc2c(c1)c1c(n2CCc2ccc(C)nc2)CCN(C)C1 [II-110, 3,6-dimethyl-9-(2-(6-methylpyridin-3-yl)ethyl)-6,7,8,9-tetrahydro-5H-pyrrolo[2,3-b:4,5-c′]dipyridine] | 1 |  | 2% | 
4 | Cc1ccc2c(c1)c1c(n2CC(C)(O)c2cccnc2)CCN(C)C1 (stereo not drawn) [compound 5, 1-(1,2,3,4-tetrahydro-2,8-dimethylpyrido[4,3-b]indol-5-yl)-2-(pyridin-3-yl)propan-2-ol] |  |  |  | inhibition at 0.1 µM [3]: 13%
5 | Cc1ccc2c(c1)c1c(n2CCc2cccnc2)CCN(C)C1 [compound 61] |  |  |  | inhibition at 0.1 µM [3]: 30%
6 | Cc1ccc2c(c1)c1c(n2CC2(c3ccccc3)OCCO2)CCN(C)C1 [compound 83] |  |  |  | Percentage inhibition of ligand binding, Adrenergic α2A [2]: 29%; inhibition at 0.1 µM [3]: 21%
7 | CCN1CCc2c(c3cc(C)ccc3n2CCc2ccncc2)C1 [compound 85] |  |  |  | inhibition at 0.1 µM [3]: 12%
8 | Cc1ccc2c(c1)c1c(n2CCc2ccc(CO)nc2)CCN(C)C1 [compound 91] |  |  |  | inhibition at 0.03 µM (compound at 0.03 μM, repeat assays, each datapoint shown, read-out: Percentage inhibition of ligand binding, Adrenergic α2A): 6%; inhibition at 0.1 µM [3]: 5%
9 | Cc1ccc2c(c1)c1c(n2CC(C)(O)c2ccc(O)cc2)CCN(C)C1 (stereo not drawn) [compound 98] | 26 |  | 32% | 
10 | C/C(=C\n1c2c(c3cc(C)ccc31)CN(C)CC2)c1ccncn1 [compound 101] | 14 |  | 15% | 
11 | Cc1ccc2c(c1)c1c(n2C2=C(c3ccncc3)CCC2)CCN(C)C1 [compound 114] | 21 |  |  | 
12 | Cc1ccc2c(c1)c1c(n2CNc2ccccn2)CCN(C)C1 [compound 120, (2,8-dimethyl-1,2,3,4-tetrahydro-pyrido[4,3-b]indol-5-ylmethyl)-pyridin-2-yl-amine] | 45 | 65.8 | 48% | inhibition at 0.03 µM [5]: 25%
13 | Cc1ccc(CCn2c3c(c4cc(C)ccc42)CN(C)CC3)cc1 [compound 180, 2,3,4,5-tetrahydro-2,8-dimethyl-5-(4-methylphenethyl)-1H-pyrido[4,3-b]indole] | 95 |  |  | 
14 | Cc1ccc(CCn2c3c(c4ccccc42)CN(C)CC3)cc1 [compound 181, 2,3,4,5-Tetrahydro-2-methyl-5-(4-methylphenethyl)-1H-pyrido[4,3-b]indole] | 89 |  |  | 
15 | CN1CCc2c(c3ccccc3n2CCc2ccccc2)C1 [compound 182, 2,3,4,5-Tetrahydro-2-methyl-5-phenethyl-1H-pyrido[4,3-b]indole] | 69 |  |  | 
16 | C/C(=C\n1c2c(c3cc(Cl)ccc31)CN(C)CC2)c1ccncc1 [compound 185, 8-chloro-2,3,4,5-tetrahydro-2-methyl-5-((E)-2-(pyridin-4-yl)prop-1-enyl)-1H-pyrido[4,3-b]indole] | 62 | 21 |  | inhibition at 0.03 µM [5]: 37%
17 | C/C(=C\n1c2c(c3cc(C)ccc31)CN(C)CC2)c1ccc(C)nc1 [compound 186] | 54 | 11 | 72% | inhibition at 0.03 µM [5]: 53%
18 | C/C(=C\n1c2c(c3cc(C)ccc31)CN(C)CC2)c1cnc(N(C)C)nc1 [compound 187] |  | 17.9 | 63% and 84% | inhibition at 0.03 µM [5]: 41%
19 | C/C(=C\n1c2c(c3cc(C)ccc31)CN(C)CC2)c1sccc1C [compound 189] | 81 | 2.86 | 86% | inhibition at 0.03 µM [5]: 71%
20 | Cc1ccc2c(c1)c1c(n2C2=C(c3ccc(C)s3)CCC2)CCN(C)C1 [compound 190, 2,8-dimethyl-5-(2-(5-methylthiophen-2-yl)cyclopent-1-enyl)-2,3,4,5-tetrahydro-1H-pyrido[4,3-b]indole] | 70 | 12.8 | 89% | inhibition at 0.03 µM [5]: 49%
21 | Cc1ccc2c(c1)c1c(n2C2=C(c3ccc4c(ccn4C)c3)CCC2)CCN(C)C1 [compound 191, 2,8-dimethyl-5-(2-(1-methyl-1H-indol-5-yl)cyclopent-1-enyl)-2,3,4,5-tetrahydro-1H-pyrido[4,3-b]indole] | 89 | 2.1 | 98% | inhibition at 0.03 µM [5]: 85%
22 | CCN1CCc2c(c3cc(C)ccc3n2CCc2ccccc2)C1 [compound 201] | 67 |  |  | 
23 | CCN1CCc2c(c3cc(C)ccc3n2CCc2ccc(C)cc2)C1 [compound 202] | 92 |  |  | 
24 | CCN1CCc2c(c3cc(C)ccc3n2CC(O)c2ccc(C)cc2)C1 (stereo not drawn) [compound 203] |  |  | 88% | 
25 | CN1CCc2c(c3cccc(Cl)c3n2CCc2ccccc2)C1 [compound 216] |  | 9.59 | 76% and 98% | inhibition at 0.03 µM [5]: 58%
26 | COc1ccc(/C(C)=C/n2c3c(c4cc(Cl)ccc42)CCN(C)CC3)cc1F [compound 240] | 82 |  | 87% | 
27 | COc1ccc(/C(C)=C/n2c3c(c4cc(C)ccc42)CCN(C)CC3)cc1F [compound 241] | 75 |  | 78% | 
